In brackets after ≈: the same amount, converted by molar mass. Read-outs that look alike come from different tables or passages of the source.
What was measured:
[1] = test system: P-gp; details: cited from earlier work
[2] = cited from earlier work
[3] = at 45°C; cited from earlier work
[4] = Determination of log D, aqueous phase pH 7.4; format: physicochemical; details: octanol / physiological buffer (aqueous phase at pH 7.4), experimental
Description: Log D, the logarithm of distribution constant or apparent partition, therefore, is a better descriptor of the lipophilicity of an ionizable compound that is likely to be charged at the physiological pH [26]. This can be determined in a similar manner to log P, but the aqueous phase, instead of being pure water, is adjusted to pH 7.4 using a physiological buffer:Equation 2 [drawing 3]

[5] = biological target: T1, MDR1 transporters (Homo sapiens, UniProt P08183); assay: P-gp efflux assay (multidrug resistance direct dye efflux kit), Rhodamine-123 dye; format: cell-based; details: experimental, Caco-2 cells
T1 construct: overexpressed MDR1, MRP1 and BCRP membrane pumps on Caco-2 cells; endogenous in cells; host or cells: Caco-2 cells
Method: Furthermore, the multidrug resistance directs dye efflux assay kit (Chemicon® International, CA, USA and Serologicals® Corporations, GA, USA) was employed, in which the Caco-2 cells were loaded with rhodamine 123 (Rh-123) and diethyloxacarbocyanine (DiOC2) dyes in the presence or absence of vinblastine. In order to access the functional activity of the inhibition of overexpressed MDR1, MRP1 and BCRP membrane pumps on Caco-2 cells in the presence of Mgf, the fluorescence intensity was measured in a Tecan fluorescence microplate reader (Tecan Ltd, Männedorf, Switzerland) at an excitation wavelength of 485 nm and an emission wavelength of 530 nm. For the purpose, Caco-2 cells in the concentration of 2.5 × 10^5 were incubated with Rh-123 alone and with vinblastine, and Rh-123-loaded Mgf at 37°C to access the inhibitory activity of Mgf on MDR1 transporters. Likewise, to estimate the ability of Mgf to act as a substrate for BCRP transportors, DiOC2 dye was employed. On the similar heels, Caco-2 cells (2.5 × 10^5) were incubated with DiOC2 alone and with vinblastine, and DiOC2-loaded Mgf at 37°C.

[6] = Partition coefficient (log P), shake-flask octanol/water; format: physicochemical; details: experimental, 25.0 ± 0.1°C
Method: Lipophilicity is a molecular property of any compound that is vital to discern the extent of distribution in the body. The logarithm of octanol/water partition coefficient, in other words, log P, is the most extensively used parameter to quantify lipophilicity. The value of log P is a valuable predictor to determine the passive transport of drugs through the lipoid membranes of the human body. […] For this, first presaturation of the solvents (octanol and water) was conducted for 24 h. Then, Mgf in a concentration of 5 mg/100 ml was added to the equilibrated mixture. After separation of the equilibrated phases by centrifugation at 10,000 r.p.m. for 5 min, the concentration of the solute was determined in the aqueous phase using HPTLC at a λmax 262 nm for each sample:Equation 1 [drawing 2]

[7] = cited from earlier work; remark: listed apart in the source
[8] = In situ single pass intestinal perfusion studies; format: in vivo, Wistar rats; details: both sexes, Wistar, other: in situ single pass perfusion of the jejunum; experimental, rat jejunum, perfusion rate 0.2 ml/min
Method: The in situ single pass intestinal perfusion studies were performed in a manner reported previously by our group in the past. Three unisex Wistar rats (250–280 g) were fasted for at least 24 h prior to the study, while water was provided ad libitum. The animals were procured from University Centre Animal House, after obtaining the requisite approval from Animals Institutional Committee, Chandigarh (PU/IAEC/S/14/104). Anesthesia was induced by an intraperitoneal injection of thiopental sodium in the dose of 50 mg/kg of the body weight of the rats. After making an incision in the abdomen, provisions for inlet and outlet were made at proximal part of the jejunum, 2–4 cm below the ligament of Trietz and about 10 cm distal to the first incision. […] Finally, 1.5 ml of perfusate was added to the ethereal extract and the concentration of Mgf in the mixture was determined using HPTLC technique at 254 nm by applying the principles of Analytical Quality by Design. The value of effective permeability (Peff) was subsequently calculated using Equation 3 [31].Equation 3 [drawing 4]
where Q is the flow rate, Cin and Cout are the respective inlet and outlet concentrations, r is the radius of the intestine and l is the length of the intestine measured after completion of perfusion.

[9] = Equilibrium solubility studies (shaker, HPTLC); format: physicochemical; details: experimental, at 25°C, mean of three
Method: Equilibrium solubility is the most vital physicochemical property that reflects the bioavailability of a compound. […] The equilibrated samples were centrifuged at 5000 r.p.m. (1398 × g) for 10 min to remove any undissolved drug and the supernatant was analyzed using HPTLC at a λmax of 262 nm. All the media were prepared according to the composition reported by Dressman and co-workers.

T1 sequence (P08183 whole entry): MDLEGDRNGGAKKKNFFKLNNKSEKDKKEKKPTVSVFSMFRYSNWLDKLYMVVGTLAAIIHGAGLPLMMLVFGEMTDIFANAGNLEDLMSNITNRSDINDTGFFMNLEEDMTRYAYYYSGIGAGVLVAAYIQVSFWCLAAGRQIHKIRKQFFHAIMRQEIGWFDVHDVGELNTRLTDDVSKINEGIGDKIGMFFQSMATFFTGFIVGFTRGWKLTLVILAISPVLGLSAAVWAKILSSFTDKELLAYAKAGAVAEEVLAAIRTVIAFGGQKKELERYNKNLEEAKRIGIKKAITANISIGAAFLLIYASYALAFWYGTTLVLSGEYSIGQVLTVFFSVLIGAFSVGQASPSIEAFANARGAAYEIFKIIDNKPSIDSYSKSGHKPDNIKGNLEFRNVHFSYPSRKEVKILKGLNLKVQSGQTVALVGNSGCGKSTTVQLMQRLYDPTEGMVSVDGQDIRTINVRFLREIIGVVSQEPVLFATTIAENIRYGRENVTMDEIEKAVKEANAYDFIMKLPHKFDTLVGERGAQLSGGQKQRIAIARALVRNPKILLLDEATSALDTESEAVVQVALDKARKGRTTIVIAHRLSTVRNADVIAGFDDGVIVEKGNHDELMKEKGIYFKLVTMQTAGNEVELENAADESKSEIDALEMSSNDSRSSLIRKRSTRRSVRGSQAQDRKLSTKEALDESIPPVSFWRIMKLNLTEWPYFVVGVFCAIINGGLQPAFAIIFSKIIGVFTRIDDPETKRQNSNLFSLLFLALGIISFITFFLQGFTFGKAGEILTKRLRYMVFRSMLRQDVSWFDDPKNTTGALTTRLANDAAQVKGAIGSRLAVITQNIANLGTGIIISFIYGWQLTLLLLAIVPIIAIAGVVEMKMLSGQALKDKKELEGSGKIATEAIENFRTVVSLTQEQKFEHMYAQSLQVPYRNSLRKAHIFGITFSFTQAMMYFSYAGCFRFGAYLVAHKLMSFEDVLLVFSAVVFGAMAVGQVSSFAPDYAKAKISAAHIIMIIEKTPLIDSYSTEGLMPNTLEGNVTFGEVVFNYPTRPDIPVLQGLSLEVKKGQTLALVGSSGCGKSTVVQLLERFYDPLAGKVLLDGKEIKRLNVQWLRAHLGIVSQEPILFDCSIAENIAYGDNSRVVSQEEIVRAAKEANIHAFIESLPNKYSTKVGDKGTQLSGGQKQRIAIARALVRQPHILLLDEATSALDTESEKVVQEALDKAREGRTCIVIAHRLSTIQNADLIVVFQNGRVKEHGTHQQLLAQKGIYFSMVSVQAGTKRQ

logD [4]: -0.79
P-gp substrate [5]: Yes
logP [6]: -0.65
effective permeability (Peff) [8]: 160 nm/s
solubility at 72 h ([9]; fasted-state simulated gastric fluid, read-out: Solubility in fasted-state simulated gastric fluid): 0.14 mg/mL (≈ 331 µM)
solubility at 72 h ([9]; fasted-state simulated intestinal fluid, fassif, thermodynamic from solid, read-out: Solubility in fasted-state simulated intestinal fluid): 1.48 mg/mL (≈ 3500 µM)
solubility at 72 h ([9]; fed-state simulated intestinal fluid, fessif, thermodynamic from solid, read-out: Solubility in fed-state simulated intestinal fluid): 3.98 mg/mL (≈ 9420 µM)
solubility at 72 h ([9]; thermodynamic from solid, water, read-out: Aqueous solubility): 0.38 mg/mL (≈ 900 µM)
Structure (SMILES): O=c1c2cc(O)c(O)cc2oc2cc(O)c([C@@H]3O[C@H](CO)[C@@H](O)[C@H](O)[C@H]3O)c(O)c12 [mangiferin, (1S)-1,5-Anhydro-1-(1,3,6,7-tetrahydroxy-9-oxo-9H-xanthen-2-yl)-D-glucitol]
P-gp substrate [1]: Yes
AUC0–t rise in streptozotocin-induced diabetic rats compared with normal rats ([2]; plasma): 2.35 fold
Cmax rise in streptozotocin-induced diabetic rats compared with normal rats ([2]; plasma): 2.79 fold
Maximum plasma levels ([2]; rats, oral): 715.04 ± 600.14 ng/mL
Time of maximum plasma levels after oral intake ([2]; rats, oral): 0.72 h
Aqueous solubility [3]: 0.25 mg/ml at 45 °C
log P [7]: -0.09 to -0.36
